In US6358885B1, “Substituted phenylheterocyclic herbicides” (Mississippi State University, priority 1992, dated 2002):

Key:
blackgrass = test: Test B preemergence/postemergence greenhouse plant response rating 0 to 10; type: in vivo, Alopecurus myosuroides; details: 0 to 10 scale
Outline: (§1)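 Planted seeds are treated preemergence with compound dissolved in a non-phytotoxic solvent, while postemergence applications go onto plants of two to eighteen cm. Plants stay in the greenhouse twelve to sixteen days and are then rated visually relative to controls.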

corn = test: as above; type: in vivo, Zea mays; details: 0 to 10 scale
Outline: as §1

cotton [1] = test: as above; type: in vivo, Gossypium hirsutum; details: 0 to 10 scale
Outline: as §1

crabgrass = test: as above; type: in vivo, Digitaria spp.; details: 0 to 10 scale
Outline: as §1

rice = test: as above; type: in vivo, Oryza sativa; details: 0 to 10 scale
Outline: as §1

sorghum = test: as above; type: in vivo, Sorghum bicolor; details: 0 to 10 scale
Outline: as §1

sugar beet = test: as above; type: in vivo, Beta vulgaris; details: 0 to 10 scale
Outline: as §1

wheat [2] = test: as above; type: in vivo, Triticum aestivum; details: 0 to 10 scale
Outline: as §1

wild oat = test: as above; type: in vivo, Avena fatua; details: 0 to 10 scale
Outline: as §1

purple nutsedge = test: as above; type: in vivo, Cyperus rotundus; details: 0 to 10 scale
Outline: as §1

cotton [3] = test: Test C preemergence/postemergence greenhouse plant response rating 0 to 100; type: in vivo, Gossypium hirsutum; details: POSTEMERGENCE; for Plant response rating, Cotton: 0 to 100 scale
Outline: (§2)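 Compounds in non-phytotoxic solvent applied preemergence to sandy loam one day after planting, postemergence at the 1–4 leaf stage, or to ~2.5 cm floodwater over silt loam.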

lambsquarters = test: as above; type: in vivo, Chenopodium album; details: POSTEMERGENCE; for Plant response rating Lambsquarters: 0 to 100 scale
Outline: as §2

pigweed = test: as above; type: in vivo, Amaranthusretroflexus; details: POSTEMERGENCE; for Plant response rating Pigweed: 0 to 100 scale
Outline: as §2

velvetleaf = test: as above; type: in vivo, Abutilon theophrasti; details: POSTEMERGENCE; for Plant response rating, Velvetleaf: 0 to 100 scale
Outline: as §2

wheat [4] = test: as above; type: in vivo, Triticum aestivum; details: POSTEMERGENCE; for Plant response rating, Wheat: 0 to 100 scale
Outline: as §2

wild buckwheat = test: as above; type: in vivo, Polygonum convolvulus; details: POSTEMERGENCE; for Plant response rating, Wild buckwheat: 0 to 100 scale
Outline: as §2

duck salad = test: Test C flood test plant response rating 0 to 100; type: in vivo, Heteranthera limosa; details: for Plant response rating Duck salad: flood test species listed under POSTEMERGENCE, 0 to 100 scale
Outline: as §2

barnyardgrass = test: Test C flood test plant response rating 0 to 100; type: in vivo, Echinochloa crus-galli; details: for Plant response rating, Barnyardgrass: flood test species listed under POSTEMERGENCE, 0 to 100 scale
Outline: as §2

[5] = POSTEMERGENCE section, flood test, Rate 4 g/ha
[6] = Rate 16 g/ha, under POSTEMERGENCE head (flood test species)

## COC(=O)c1cc(-c2nn3c(c2Cl)CCCC3)c(F)cc1Cl [Compound 43]
blackgrass; POSTEMERGENCE, Rate 50 g/ha
  Plant response rating, Blackgrass: 7
blackgrass; POSTEMERGENCE, Rate 200 g/ha
  Plant response rating, Blackgrass: 8
blackgrass; PREEMERGENCE, Rate 50 g/ha
  Plant response rating, Blackgrass: 2
blackgrass; Rate 200 g/ha, PREEMERGENCE
  Plant response rating, Blackgrass: 5
corn; POSTEMERGENCE, Rate 50 g/ha
  Plant response rating, Corn: 8
corn; POSTEMERGENCE, Rate 200 g/ha
  Plant response rating, Corn: 10
corn; PREEMERGENCE, Rate 50 g/ha
  Plant response rating, Corn: 0
corn; Rate 200 g/ha, PREEMERGENCE
  Plant response rating, Corn: 0
Cotton [1]; POSTEMERGENCE, Rate 50 g/ha
  Plant response rating, Cotton: 10
Cotton [1]; POSTEMERGENCE, Rate 200 g/ha
  Plant response rating, Cotton: 10
Cotton [1]; PREEMERGENCE, Rate 50 g/ha
  Plant response rating, Cotton: 0
Cotton [1]; Rate 200 g/ha, PREEMERGENCE
  Plant response rating, Cotton: 1
crabgrass; POSTEMERGENCE, Rate 50 g/ha
  Plant response rating, Crabgrass: 4
crabgrass; PREEMERGENCE, Rate 50 g/ha
  Plant response rating, Crabgrass: 0
crabgrass; Rate 200 g/ha, PREEMERGENCE
  Plant response rating, Crabgrass: 0
rice; POSTEMERGENCE, Rate 50 g/ha
  Plant response rating, Rice: 7
rice; PREEMERGENCE, Rate 50 g/ha
  Plant response rating, Rice: 1
rice; Rate 200 g/ha, POSTEMERGENCE
  Plant response rating, Rice: 9
rice; Rate 200 g/ha, PREEMERGENCE
  Plant response rating, Rice: 2
sorghum; POSTEMERGENCE, Rate 50 g/ha
  Plant response rating, Sorghum: 5
sorghum; PREEMERGENCE, Rate 50 g/ha
  Plant response rating, Sorghum: 0
sorghum; Rate 200 g/ha, POSTEMERGENCE
  Plant response rating, Sorghum: 8
sorghum; Rate 200 g/ha, PREEMERGENCE
  Plant response rating, Sorghum: 2
Sugar beet; POSTEMERGENCE, Rate 50 g/ha
  Plant response rating, Sugar beet: 10
Sugar beet; PREEMERGENCE, Rate 50 g/ha
  Plant response rating, Sugar beet: 9
Sugar beet; Rate 200 g/ha, POSTEMERGENCE
  Plant response rating, Sugar beet: 10
Sugar beet; Rate 200 g/ha, PREEMERGENCE
  Plant response rating, Sugar beet: 10
Wheat [2]; POSTEMERGENCE, Rate 50 g/ha
  Plant response rating, Wheat: 3
Wheat [2]; PREEMERGENCE, Rate 50 g/ha
  Plant response rating, Wheat: 0
Wheat [2]; Rate 200 g/ha, POSTEMERGENCE
  Plant response rating, Wheat: 8
Wheat [2]; Rate 200 g/ha, PREEMERGENCE
  Plant response rating, Wheat: 2
Wild oat; POSTEMERGENCE, Rate 50 g/ha
  Plant response rating, Wild oat: 5
Wild oat; PREEMERGENCE, Rate 50 g/ha
  Plant response rating, Wild oat: 2
Wild oat; Rate 200 g/ha, POSTEMERGENCE
  Plant response rating, Wild oat: 7
Purple nutsedge; POSTEMERGENCE, Rate 50 g/ha
  Plant response rating, Nutsedge: 3
Purple nutsedge; PREEMERGENCE, Rate 50 g/ha
  Plant response rating, Nutsedge: 0
Purple nutsedge; Rate 200 g/ha, POSTEMERGENCE
  Plant response rating, Nutsedge: 3
Purple nutsedge; Rate 200 g/ha, PREEMERGENCE
  Plant response rating, Nutsedge: 0
Cotton [3]; 62 g/ha
  Plant response rating, Cotton: 100
Cotton [3]; 250 g/ha
  Plant response rating, Cotton: 100
Cotton [3]; Rate 4 g/ha
  Plant response rating (0 to 100), Cotton: 90
Cotton [3]; Rate 16 g/ha
  Plant response rating (0 to 100), Cotton: 90
lambsquarters; 62 g/ha
  Plant response rating Lambsquarters: 100
lambsquarters; 250 g/ha
  Plant response rating Lambsquarters: 100
lambsquarters; Rate 4 g/ha
  Plant response rating (0 to 100), Lambsquarters: 90
lambsquarters; Rate 16 g/ha
  Plant response rating (0 to 100), Lambsquarters: 100
pigweed; 62 g/ha
  Plant response rating Pigweed: 100
pigweed; 250 g/ha
  Plant response rating Pigweed: 100
pigweed; Rate 4 g/ha
  Plant response rating (0 to 100), Pigweed: 90
pigweed; Rate 16 g/ha
  Plant response rating (0 to 100), Pigweed: 100
velvetleaf; 62 g/ha
  Plant response rating, Velvetleaf: 100
velvetleaf; 250 g/ha
  Plant response rating, Velvetleaf: 100
velvetleaf; Rate 4 g/ha
  Plant response rating (0 to 100), Velvetleaf: 50
velvetleaf; Rate 16 g/ha
  Plant response rating (0 to 100), Velvetleaf: 100
Wheat [4]; 62 g/ha
  Plant response rating, Wheat: 50
Wheat [4]; 250 g/ha
  Plant response rating, Wheat: 60
Wheat [4]; Rate 4 g/ha
  Plant response rating (0 to 100), Wheat: 20
Wheat [4]; Rate 16 g/ha
  Plant response rating (0 to 100), Wheat: 40
Wild buckwheat; 62 g/ha
  Plant response rating, Wild buckwheat: 100
Wild buckwheat; 250 g/ha
  Plant response rating, Wild buckwheat: 100
Wild buckwheat; Rate 4 g/ha
  Plant response rating (0 to 100), Wild buckwheat: 60
Wild buckwheat; Rate 16 g/ha
  Plant response rating (0 to 100), Wild buckwheat: 100
Duck salad; [5]
  Plant response rating (0 to 100), Duck salad: 0
Duck salad; [6]
  Plant response rating (0 to 100), Duck salad: 0
Duck salad; 62 g/ha
  Plant response rating Duck salad: 25
Duck salad; 250 g/ha
  Plant response rating Duck salad: 45
barnyardgrass; [5]
  Plant response rating (0 to 100), Barnyardgrass: 45
barnyardgrass; [6]
  Plant response rating (0 to 100), Barnyardgrass: 95
barnyardgrass; 62 g/ha
  Plant response rating, Barnyardgrass: 100
barnyardgrass; 250 g/ha
  Plant response rating, Barnyardgrass: 100
